“Also recorded” adds a separate entry of the source.
Key:
[1] = Source text: In one or more embodiments of the present disclosure, the foamable composition includes a potent solvent, in addition to or in place of one of the hydrophobic solvents, polar solvents or emollients of the composition. A potent solvent is a solvent other than mineral oil that solubilizes a specific active agent substantially better than a hydrocarbon solvent such as mineral oil or petrolatum.
[2] = Minocycline HCl compatibility tests with excipients (colour change, HPLC assay); type: physicochemical; conditions: for Compatibility with Minocycline HCL: Summary, compatibility tested after the storage for up to 3 weeks
Method: About 0.5 g foam or pre-foam formulation is dissolved with diluent (65% phosphate buffer: 35% Acetonitrile (ACN)) in a 25 mL volumetric flask. The sample is shaken […] on an inverted shaker stand for 10 min at room temperature. The resulting suspension is centrifuged for 5 minutes at 4000 rpm. The supernatant is separated by vacuum pump and filtered thereafter through a 0.45 μm PTFE+GL filter. The first few drops of the filtrate are discarded. The resultant clear solution layer is analyzed by HPLC using columnRP-8. The content of MCH is calculated against an MCH standard 0.4 mg/mL (concentration). The content of 4-epiminocycline is calculated against MCH standard 0.02 mg/mL (concentration).
Color is tested by visual observation and in particular by comparison to “Pantone® formula guide solid uncoated” colors. […] Minocycline changes color to orange/greenish with oxidation or complexation. These oxidized colors are not desirable. Colors such as 609U/608U/610U are indicative of degradation by the tetracycline antibiotic.
For convenience the excipients were divided into four different groups (I-IV).
Different compositions of hydrophilic and hydrophobic solvents containing minocycline HCl were prepared by weighing the antibiotic in a glass vial and shaking overnight with each solvent investigated (Group I and II).
Mixtures of Minocycline HCl with solid excipients like titanium dioxide, stearyl alcohol, myristyl alcohol etc were prepared by suspending Minocycline HCl in oil with stirring and then adding the solid ingredient as a powder with stirring at room temperature (Group III an IV).
Oxidation of minocycline after the storage at various temperatures was detected by color change. Assay for content of the active pharmaceutical ingredient (API) and degradation product (4-epiminocycline) was determined in some samples.
A series of experiments were performed to evaluate which mixture of components/ingredients were compatible or incompatible with minocycline. Each component or combinations of components were mixed with either 1.1% or 2.2% Minocycline HCl. The glass vials containing the formulations were wrapped in aluminum—and were subjected to a range of temperatures 25° C.; 30° C.; 40° C.; 50 C; for between one week to about 3 weeks. The best results are shown as “compatible no oxidation”.

[3] = Doxycycline Hyclate compatibility test with excipients; type: physicochemical; conditions: for Visual inspection after the storage at 25° C.: stored at 25° C. for two weeks; for Visual inspection after the storage at 40° C.: stored at 40° C. for two weeks; for Visual inspection after the storage at 50° C.: stored at 50° C. for two weeks
Method: (§1) Different compositions of hydrophilic and hydrophobic solvents containing Doxycycline Hyclate (Set I and Set II) and Doxycycline Monohydrate (Set III) were prepared by weighing the antibiotic in a glass vial and shaking overnight with each solvent investigated.
Group II included Doxycycline Hyclate mixed with various vehicles with addition of antioxidants like alpha tocopherol, butylated hydroxytolyene (BHT), ascorbic acid.

[4] = Doxycycline Monohydrate compatibility test with excipients; type: physicochemical; conditions: for Visual inspection at T-0 / Visual inspection after the storage at 25° C. / Visual inspection after the storage at 40° C. / Visual inspection after the storage at 50° C.: Mixtures of 1.04% w/w of Doxycycline Monohydrate with the ingredient; for Visual inspection after the storage at 25° C.: stored at 25° C. for two weeks; for Visual inspection after the storage at 40° C.: stored at 40° C. for two weeks; for Visual inspection after the storage at 50° C.: stored at 50° C. for two weeks; for Compatibility with Doxycycline Monohydrate: Summary, compatibility tested after the storage for up to 3 weeks; for Compatibility with Doxycycline Monohydrate (text): as summarised in text, 40° and 50° C. for two weeks where stated
Method: as §1, with “investigated. Mixtures of Doxycycline salts 1.04% w/w with solid excipients were prepared in a similar way as for Minocycline HCl.” for “investigated.”
A similar compatibility test was performed on another form of Doxycycline-Doxycycline Monohydrate. Table 17b and Table 18.

[5] = cited from earlier work
[6] = Minocycline in hydrophilic vehicles dried with Magnesium Sulphate; type: physicochemical; conditions: vehicle dried by the Magnesium Sulfate procedure
Method: A special procedure for drying of water residues was developed. Magnesium Sulphate was added to the glass beaker filled with one of the hydrophilic vehicles. The mixture was stirred during overnight and centrifuged the following morning. Clear supernatant was collected in a separate vessel and stored in a dessicator.
The following were tested using the above procedure: mixtures of Minocycline with PEG 200, PEG 400, glycerol, prolylene glycol, polyethylene glycol.

[7] = Mixtures of 1.04% w/w of Doxycycline Hyclate with the ingredient
[8] = Summary, compatibility tested after the storage for up to 3 weeks
[9] = Group II, mixture with 1.1% of Minocycline HCl, 10 days at 40° C.
[10] = Group II, mixture with 1.1% of Minocycline HCl, T-0
[11] = 40° C. and 50° C. for two weeks where stated
[12] = waterless medium with alpha-tocopherol and ascorbic acid

Molecule: CC(=O)[C@H]1CC[C@H]2[C@@H]3CCC4=CC(=O)CC[C@]4(C)[C@H]3CC[C@]12C [Progesterone]
- Solubility in mineral oil [1]: < 0.001%

Molecule: CO[C@H]1CO[C@H]2[C@@H]1OC[C@H]2OC [Dimethyl Isosorbide]
- Compatibility with Minocycline HCL [2]: No
- Visual inspection at T-0 ([3]; Mixtures of 1.04% w/w of Doxycycline Hyclate with the ingredient, T-0 (two-week study)): yellow solution
- Visual inspection after the storage at 25° C. [3, 7]: Yellow solution
- Visual inspection after the storage at 40° C. [3, 7]: Brownish orange
- Visual inspection after the storage at 50° C. [3, 7]: Orange solution
- Compatibility with Doxycycline Hyclate [3, 8]: No
- Visual inspection at T-0 [4]: yellow solution
- Visual inspection after the storage at 25° C. [4]: orange solution
- Visual inspection after the storage at 40° C. [4]: orange orange
- Visual inspection after the storage at 50° C. [4]: Orange solution
- Compatibility with Doxycycline Monohydrate [4]: No

Molecule: Cc1cnc(NC(=O)C2=C(O)c3ccccc3S(=O)(=O)N2C)s1 [Meloxicam]
- Solubility in mineral oil [1]: < 0.001%

Molecule: CCCC(=O)O[C@]1(C(=O)CO)CC[C@H]2[C@@H]3CCC4=CC(=O)CC[C@]4(C)[C@H]3[C@@H](O)C[C@@]21C [Hydrocortisone butyrate]
- Solubility in glycofurol [1]: more than 1%
- Solubility in mineral oil [1]: < 0.01%

Molecule: C[Si]1(C)O[Si](C)(C)O[Si](C)(C)O[Si](C)(C)O[Si](C)(C)O1 [Cyclomethicone 5 NF]
- Compatibility with Minocycline HCL [2]: Yes
- Compatibility with Doxycycline Hyclate [3, 8]: Yes
- Compatibility with Doxycycline Monohydrate [4]: Yes

Molecule: Cc1ncc([N+](=O)[O-])n1CCO [Metronidazole]
- Solubility in dimethyl isosorbide [1]: more than 1%
- Solubility in mineral oil [1]: < 0.01%

Molecule: OCCCCO [Butylene glycol]
- Compatibility with Minocycline HCL [2]: No
- Compatibility with Doxycycline Hyclate [3, 8]: No
- Visual inspection after the storage at 25° C. [4]: Orange solution
- Visual inspection after the storage at 50° C. [4]: black solution
- Compatibility with Doxycycline Monohydrate [4]: No

Molecule: C[C@H]1c2cccc(O)c2C(=O)C2=C(O)[C@]3(O)C(=O)C(C(N)=O)=C(O)[C@@H](N(C)C)[C@@H]3[C@@H](O)[C@@H]21 [doxycycline monohydrate]
- Solubility in alcohol ([5]; alcohol): sparingly soluble
- Solubility in water ([5]; water): very slightly soluble

Molecule: CC(C)OC(=O)CCCCC(=O)OC(C)C [Diisopropyl adipate]
- Compatibility with Minocycline HCL [2]: Yes
- Compatibility with Doxycycline Hyclate [3, 8]: Yes
- Compatibility with Doxycycline Monohydrate [4]: No

Molecule: CCCCCCCCCCCCCCCCCCO [Stearyl alcohol]
- Compatibility with Minocycline HCL [2]: Yes
- Compatibility with Doxycycline Hyclate [3, 8]: Yes

Molecule: CC(C)CCCCCCCCCCCCCCC(=O)O [Isostearic Acid]
- Compatibility with Minocycline HCL [2]: No
- Compatibility with Doxycycline Hyclate [3, 8]: Yes

Molecule: CCCCCCCC/C=C\CCCCCCCCO [Oleyl alcohol]
- Compatibility with Minocycline HCL [2]: Yes
- Compatibility with Doxycycline Hyclate [3, 8]: Yes

Molecule: CCCCCCCCCCCCCCO [Myristyl alcohol]
- Compatibility with Minocycline HCL [2]: Yes
- Compatibility with Doxycycline Hyclate [3, 8]: Yes

Molecule: C/C(=C\C(=O)OCCCCCCCCC(=O)O)C[C@@H]1OC[C@H](C[C@@H]2O[C@H]2[C@@H](C)[C@H](C)O)[C@@H](O)[C@H]1O [Mupirocin]
- Solubility in dimethyl isosorbide [1]: more than 1%
- Solubility in glycofurol [1]: more than 1%
- Solubility in mineral oil [1]: < 0.01%
- Solubility in polyethylene glycol 400 (PEG 400) [1]: more than 1%
- Solubility in propylene glycol [1]: more than 1%

Molecule: OCC(O)CO [Glycerol]
- Compatibility with Minocycline HCl [2]: intensive oxidation
- Compatibility with Minocycline HCL [2]: No
- Compatibility with Doxycycline Hyclate [3, 8]: No
- Compatibility with Doxycycline Monohydrate [4]: No
- Oxidation of Minocycline HCL after dissolution in dried vehicle [6]: oxidized quickly

Molecule: Sorbitan Monolaurate
- Compatibility with Minocycline HCL [2]: No
- Visual inspection after the storage at 25° C. [3, 7]: Brown solution
- Visual inspection after the storage at 40° C. [3, 7]: Brown solution
- Visual inspection after the storage at 50° C. [3, 7]: Black solution
- Compatibility with Doxycycline Hyclate [3, 8]: No
- Visual inspection at T-0 [4]: Brown mixture
- Visual inspection after the storage at 25° C. [4]: orange solution
- Visual inspection after the storage at 40° C. [4]: Brown solution
- Visual inspection after the storage at 50° C. [4]: brown solution
- Compatibility with Doxycycline Monohydrate [4]: No

Molecule: CCO [Ethanol 95%]
- Compatibility with Minocycline HCl [2]: changed their colour from yellow to orange
- 4-epiminocycline Assay (% w/w), 10 days at 40° C. [2, 9]: 0.39 % w/w
- Minocycline Assay (% w/w), 10 days at 40° C. [2, 9]: 0.52 % w/w
- 4-epiminocycline Assay (% w/w), T-0 [2, 10]: 0.021 % w/w
- Minocycline Assay (% w/w), T-0 [2, 10]: 0.97 % w/w
- Compatibility with Minocycline HCL [2]: No
- Compatibility with Doxycycline Hyclate [3, 11]: stable
- Compatibility with Doxycycline Hyclate [3, 8]: Yes
- Visual inspection after the storage at 25° C. [4]: Brown solution
- Visual inspection after the storage at 40° C. [4]: Brown solution
- Visual inspection after the storage at 50° C. [4]: Black solution
- Compatibility with Doxycycline Monohydrate [4]: No
- Compatibility with Doxycycline Monohydrate (text) [4]: changed their colour from yellow to orange
- Compatibility with Doxycycline Monohydrate (text) ([4]; listed as ethanol 95%): oxidized

Molecule: CCCCCCCCCCC(CO)CCCCCCCC (stereo not drawn) [Octyldodecanol]
- Compatibility with Minocycline HCl [2]: full compatibility; also recorded: compatible
- Compatibility with Minocycline HCL [2]: Yes
- Compatibility with Doxycycline Hyclate [3, 11]: incompatibility
- Compatibility with Doxycycline Hyclate [3, 8]: No
- Compatibility with Doxycycline Monohydrate [4]: No
- Compatibility with Doxycycline Monohydrate (text) [4]: incompatibility

Molecule: Sorbitan Monostearate
- Compatibility with Minocycline HCL [2]: Yes
- Compatibility with Doxycycline Hyclate [3, 8]: Yes

Molecule: CC(=O)N1CCN(c2ccc(OCC3COC(Cn4ccnc4)(c4ccc(Cl)cc4Cl)O3)cc2)CC1 (stereo not drawn) [Ketoconazole]
- Solubility in dimethyl isosorbide [1]: more than 1%
- Solubility in glycofurol [1]: more than 1%
- Solubility in mineral oil [1]: < 0.01%
- Solubility in propylene glycol [1]: more than 1%

Molecule: CC(O)CO (stereo not drawn) [Propylene glycol]
- Compatibility with Minocycline HCL [2]: No
- Oxidation of Minocycline HCL despite added anti oxidants [2, 12]: did not prevent the oxidation
- Compatibility with Doxycycline Hyclate [3, 8]: No
- Oxidation of Doxycycline Hyclate despite added anti oxidants [3, 12]: did not prevent the oxidation
- Compatibility with Doxycycline Monohydrate [4]: No
- Oxidation of Doxycycline Monohydrate despite added anti oxidants [4, 12]: did not prevent the oxidation
- Oxidation of Minocycline HCL after dissolution in dried vehicle [6]: oxidized quickly

Molecule: CCCCC(=O)O[C@]1(C(=O)CO)[C@@H](C)C[C@H]2[C@@H]3CCC4=CC(=O)C=C[C@]4(C)[C@@]3(F)[C@@H](O)C[C@@]21C [Betamethasone valerate]
- Solubility in glycofurol [1]: more than 1%
- Solubility in mineral oil [1]: < 0.01%

Source: US8343945B2, “Carriers, formulations, methods for formulating unstable active agents for external application and uses thereof” (Foamix Ltd., priority 2007, dated 2013)
